Assay results reported in US20250320213A1, “Nitrogen-Containing Heterocyclic Compounds” (Pfizer Inc., priority 2024, published 2025).

Tests used:
STAT6 = biological target: T1, STAT6 (Homo sapiens, UniProt P42226); assay: STAT6 Reporter Luciferase Assay (IL-13 stimulated HaCaT keratinocyte NanoLuc reporter cells); format: cell-based; conditions: IL-13 stimulated HaCaT STAT6 NanoLuc reporter cells; read-out: Reporter EC50
T1 construct: stably transfected HaCaT keratinocyte cell line, which expresses NanoLuc luciferase reporter gene under the transcriptional control of the STAT6 responsive promoter; endogenous in cells; host or cells: HaCaT keratinocyte reporter cell line (stably transfected with a NanoLuc reporter)
T1 sequence (P42226 1-847): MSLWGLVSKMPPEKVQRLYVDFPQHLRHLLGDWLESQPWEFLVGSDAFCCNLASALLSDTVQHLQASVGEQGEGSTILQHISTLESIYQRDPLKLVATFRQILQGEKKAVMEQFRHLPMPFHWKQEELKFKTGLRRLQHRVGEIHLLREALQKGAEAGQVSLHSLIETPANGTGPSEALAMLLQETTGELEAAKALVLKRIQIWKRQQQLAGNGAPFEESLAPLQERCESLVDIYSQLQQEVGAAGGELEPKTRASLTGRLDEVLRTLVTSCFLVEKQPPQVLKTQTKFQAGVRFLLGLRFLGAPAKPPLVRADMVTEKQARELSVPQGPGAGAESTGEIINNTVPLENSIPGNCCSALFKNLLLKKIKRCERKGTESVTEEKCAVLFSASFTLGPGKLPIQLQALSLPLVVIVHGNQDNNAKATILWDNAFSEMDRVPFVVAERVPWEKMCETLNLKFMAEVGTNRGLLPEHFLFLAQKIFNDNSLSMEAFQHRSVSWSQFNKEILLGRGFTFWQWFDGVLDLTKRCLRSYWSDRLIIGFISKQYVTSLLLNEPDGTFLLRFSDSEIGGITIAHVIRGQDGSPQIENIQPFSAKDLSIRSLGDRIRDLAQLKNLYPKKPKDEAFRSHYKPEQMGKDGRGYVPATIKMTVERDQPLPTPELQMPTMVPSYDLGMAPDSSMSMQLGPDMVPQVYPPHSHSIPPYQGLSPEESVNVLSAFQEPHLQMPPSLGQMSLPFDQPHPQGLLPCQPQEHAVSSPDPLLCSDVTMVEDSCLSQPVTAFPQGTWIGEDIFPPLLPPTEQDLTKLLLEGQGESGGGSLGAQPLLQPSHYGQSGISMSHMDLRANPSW
Procedure, shortened: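 Compounds were tested as 11-point, 4-fold series in duplicate, applied for 2 h at 37 °C in low-serum (2% FBS) DMEM. The cells were a stable HaCaT line with NanoLuc under a STAT6-responsive IL-13Ra2 promoter. After 4 h with 0.12 nM IL-13, Nano-Glo luminescence was measured.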

[1] = test system: CCL17 secretion in peripheral human whole blood; assay: Human Whole Blood (HWB) CCL17 TR-FRET Assay (IL-13 stimulated CCL17 secretion); format: cell-based; conditions: human whole blood, IL-13 stimulated
Procedure, shortened: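 IC50 values reflect inhibition of IL-13-driven CCL17 release in human whole blood. Blood was preincubated with compound 2 h, stimulated 48 h at 37 °C with IL-13 (10 ng/mL final), and serum CCL17 was measured by TR-FRET.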

## CC(C)n1nc(C(=O)NCc2ccc(NC(=O)N(C)C)cc2)c2c1CC(C(F)(F)F)N(c1ccc(C(=O)N(C)C)cn1)C2 (single isomer, unassigned) [Example 276, rel-(R or S)-5-(5-(dimethylcarbamoyl)pyridin-2-yl)-N-(4-(3,3-dimethylureido)benzyl)-1-isopropyl-6-(trifluoromethyl)-4,5,6,7-tetrahydro-1H-pyrazolo[4,3-c]pyridine-3-carboxamide]
STAT6
  EC50: 0.002 µM
[1]; 48 hours
  IC50: 0.028 µM

## CC(C)n1nc(C(=O)NCc2ccc(NC(=O)N(C)C)cc2)c2c1CC(C(F)(F)F)N(c1ccc(C(=O)N(C)C)cn1)C2 (single isomer, unassigned) [Example 277, rel-(R or S)-5-(5-(dimethylcarbamoyl)pyridin-2-yl)-N-(4-(3,3-dimethylureido)benzyl)-1-isopropyl-6-(trifluoromethyl)-4,5,6,7-tetrahydro-1H-pyrazolo[4,3-c]pyridine-3-carboxamide]
STAT6
  EC50: 0.01 µM
[1]; 48 hours
  IC50: 0.109 µM

## CC1CN(c2ccc(C(=O)N(C)C)cn2)Cc2c1nn1c2C(=O)N(Cc2ccc(NC(=O)N(C)C)cc2)CC1 (single isomer, unassigned) [Example 280, rel-(R or S)-6-(9-(4-(3,3-dimethylureido)benzyl)-4-methyl-10-oxo-3,4,7,8,9,10-hexahydropyrido[4′,3′:3,4]pyrazolo[1,5-alpyrazin-2(1H)-yl)-N,N-dimethylnicotinamide]
STAT6
  EC50: 0.01 µM
[1]; Homo sapiens, 48 h
  IC50: 0.134 µM

## CC1CN(c2ccc(C(=O)N(C)C)cn2)Cc2c1nn1c2C(=O)N(Cc2ccc(NC(=O)N(C)C)cc2)CC1 (single isomer, unassigned) [Example 281, rel-(R or S)-6-(9-(4-(3,3-dimethylureido)benzyl)-4-methyl-10-oxo-3,4,7,8,9,10-hexahydropyrido[4′,3′:3,4]pyrazolo[1,5-alpyrazin-2(1H)-yl)-N,N-dimethylnicotinamide]
STAT6
  EC50: 0.017 µM
[1]; 48 hours
  IC50: 0.212 µM

## C[C@H]1CN(c2ccc(C(=O)N(C)C)cn2)Cc2c(C(=O)NCc3ccc(NC(=O)N(C)C)cc3)nn(C3(C)CC3)c21 (single isomer, unassigned) [Example 285]
STAT6
  EC50: 0.001 µM
[1]; Homo sapiens, 48 h
  IC50: 0.007 µM

## C[C@H]1CN(c2ccc(C(=O)N(C)C)cn2)Cc2c(C(=O)NCc3ccc(NC(=O)N(C)C)cc3)nn(CC3CC3)c21 (single isomer, unassigned) [Example 287]
STAT6
  EC50: 0.001 µM
[1]; Homo sapiens, 48 h
  IC50: 0.013 µM

## CCn1nc(C(=O)NCc2ccc(NC(=O)N(C)C)cc2)c2c1C(C(F)(F)F)CN(c1ccc(C(=O)N(C)C)cn1)C2 (single isomer, unassigned) [Example 303, rel-(R or S)-5-(5-(dimethylcarbamoyl)pyridin-2-yl)-N-(4-(3,3-dimethylureido)benzyl)-1-ethyl-7-(trifluoromethyl)-4,5,6,7-tetrahydro-1H-pyrazolo[4,3-c]pyridine-3-carboxamide]
STAT6
  EC50: 0.022 µM
[1]; 48 hours
  IC50: 0.334 µM

## CCn1nc(C(=O)NCc2ccc(NC(=O)N(C)C)cc2)c2c1C(C(F)(F)F)CN(c1ccc(C(=O)N(C)C)cn1)C2 (single isomer, unassigned) [Example 304, rel-(R or S)-5-(5-(dimethylcarbamoyl)pyridin-2-yl)-N-(4-(3,3-dimethylureido)benzyl)-1-ethyl-7-(trifluoromethyl)-4,5,6,7-tetrahydro-1H-pyrazolo[4,3-c]pyridine-3-carboxamide]
STAT6
  EC50: 0.0003 µM
[1]; 48 hours
  IC50: 0.004 µM

## C[C@H]1CN(c2ccc(C(=O)N(C)C)cn2)Cc2c(C(=O)NCc3ccc(NC(=O)N(C)C)cc3)nn(CC(F)(F)F)c21 (single isomer, unassigned) [Example 307]
STAT6
  EC50: 0.0005 µM
[1]; Homo sapiens, 48 h
  IC50: 0.007 µM

## CCC1CN(c2ccc(C(=O)N(C)C)cn2)Cc2c(C(=O)NCc3ccc(NC(=O)N(C)C)cc3)nn(C(C)C)c21 (single isomer, unassigned) [Example 310, rel-(R or S)-5-(5-(dimethylcarbamoyl)pyridin-2-yl)-N-(4-(3,3-dimethylureido)benzyl)-7-ethyl-1-isopropyl-4,5,6,7-tetrahydro-1H-pyrazolo[4,3-c]pyridine-3-carboxamide]
STAT6
  EC50: 0.008 µM
[1]; 48 hours
  IC50: 0.115 µM

## CCC1CN(c2ccc(C(=O)N(C)C)cn2)Cc2c(C(=O)NCc3ccc(NC(=O)N(C)C)cc3)nn(C(C)C)c21 (single isomer, unassigned) [Example 311, rel-(R or S)-5-(5-(dimethylcarbamoyl)pyridin-2-yl)-N-(4-(3,3-dimethylureido)benzyl)-7-ethyl-1-isopropyl-4,5,6,7-tetrahydro-1H-pyrazolo[4,3-c]pyridine-3-carboxamide]
STAT6
  EC50: 0.001 µM
[1]; 48 hours
  IC50: 0.011 µM

## CCC1CN(c2ccc(C(=O)N(C)C)cn2)Cc2c(C(=O)NCc3ccc(NC(=O)N(C)C)cc3)nn(CC)c21 (single isomer, unassigned) [Example 312, rel-(R or S)-5-(5-(dimethylcarbamoyl)pyridin-2-yl)-N-(4-(3,3-dimethylureido)benzyl)-1,7-diethyl-4,5,6,7-tetrahydro-1H-pyrazolo[4,3-c]pyridine-3-carboxamide]
STAT6
  EC50: 0.01 µM
[1]; 48 hours
  IC50: 0.163 µM

## CCC1CN(c2ccc(C(=O)N(C)C)cn2)Cc2c(C(=O)NCc3ccc(NC(=O)N(C)C)cc3)nn(CC)c21 (single isomer, unassigned) [Example 313, rel-(R or S)-5-(5-(dimethylcarbamoyl)pyridin-2-yl)-N-(4-(3,3-dimethylureido)benzyl)-1,7-diethyl-4,5,6,7-tetrahydro-1H-pyrazolo[4,3-c]pyridine-3-carboxamide]
STAT6
  EC50: 0.001 µM
[1]; 48 hours
  IC50: 0.015 µM

## CCC(C)n1nc(C(=O)NCc2ccc(NC(=O)N(C)C)cc2)c2c1[C@@H](C)CN(c1ccc(C(=O)N(C)C)cn1)C2 (single isomer, unassigned) [Example 318, (S)-1-((R*)-sec-butyl)-5-(5-(dimethylcarbamoyl)pyridin-2-yl)-N-(4-(3,3-dimethylureido)benzyl)-7-methyl-4,5,6,7-tetrahydro-1H-pyrazolo[4,3-c]pyridine-3-carboxamide]
STAT6
  EC50: 0.0004 µM
[1]; 48 hours
  IC50: 0.004 µM

## CCC(C)n1nc(C(=O)NCc2ccc(NC(=O)N(C)C)cc2)c2c1[C@@H](C)CN(c1ccc(C(=O)N(C)C)cn1)C2 (single isomer, unassigned) [Example 319, (S)-1-((R*)-sec-butyl)-5-(5-(dimethylcarbamoyl)pyridin-2-yl)-N-(4-(3,3-dimethylureido)benzyl)-7-methyl-4,5,6,7-tetrahydro-1H-pyrazolo[4,3-c]pyridine-3-carboxamide]
STAT6
  EC50: 0.001 µM
[1]; 48 hours
  IC50: 0.013 µM

## CC(C)n1nc(C(=O)NCc2ccc(-c3ncc[nH]3)cc2)c2c1[C@@H](C)CN(c1ncc(C(=O)N(C)C)cn1)C2 (single isomer, unassigned) [Example 335]
STAT6
  EC50: 0.001 µM
[1]; Homo sapiens, 48 h
  IC50: 0.005 µM

## CCC1CN(c2ccc(C(=O)N(C)C)cn2)Cc2c(C(=O)NCc3ccc(NC(=O)N(C)C)cc3)nc(C)n21 (single isomer, unassigned) [Example 336, rel-(R or S)-7-(5-(dimethylcarbamoyl)pyridin-2-yl)-N-(4-(3,3-dimethylureido)benzyl)-5-ethyl-3-methyl-5,6,7,8-tetrahydroimidazo[1,5-a]pyrazine-1-carboxamide]
STAT6
  EC50: 0.014 µM
[1]; Homo sapiens, 48 h
  IC50: 0.041 µM

## CC(CC#N)n1nc(C(=O)NCc2ccc(NC(=O)N(C)C)cc2)c2c1CCN(c1ccc(C(=O)N(C)C)cn1)C2 (single isomer, unassigned) [Example 347, rel-(R or S)-1-(1-cyanopropan-2-yl)-5-(5-(dimethylcarbamoyl)pyridin-2-yl)-N-(4-(3,3-dimethylureido)benzyl)-4,5,6,7-tetrahydro-1H-pyrazolo[4,3-c]pyridine-3-carboxamide]
STAT6
  EC50: 0.083 µM
[1]; 48 hours
  IC50: 0.127 µM

## CC(CC#N)n1nc(C(=O)NCc2ccc(NC(=O)N(C)C)cc2)c2c1CCN(c1ccc(C(=O)N(C)C)cn1)C2 (single isomer, unassigned) [Example 348, rel-(R or S)-1-(1-cyanopropan-2-yl)-5-(5-(dimethylcarbamoyl)pyridin-2-yl)-N-(4-(3,3-dimethylureido)benzyl)-4,5,6,7-tetrahydro-1H-pyrazolo[4,3-c]pyridine-3-carboxamide]
STAT6
  EC50: 0.043 µM
[1]; 48 hours
  IC50: 0.036 µM
